Reference: PubChem BioAssay AID179 (DTP/NCI, 2004)
The source made the active and inactive calls.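 Rule for the calls: active = compounds giving half or more protection of infected cells from virus-caused growth loss, again on retest; inactive = the rest.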

Tested on: CEM cells HIV-1 protection, formazan growth assay
Assay: NCI AIDS Antiviral Assay
Details: for IC50: measured here: growth of uninfected CEM cells
Summary of the method: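 Human CEM cells, uninfected and HIV-1-infected, exposed to five drug concentrations; growth measured by soluble formazan assay and scored as percent protection from infection, with protecting compounds retested.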

Compound	EC50 [µM]	IC50 [µM]	outcome
CCCCOCOc1ccccc1P1(=O)COc2ccccc2OC1	> 200	44.7	–
CCOC(=O)c1sc2c(c1O)c(=O)n(-c1ccccc1)c(=S)n2-c1ccccc1	> 17	> 17	–
C/C=C(\C)C(=O)OC1CC(OC(C)=O)C2(C(=O)OC)COC3C2C1(C)C1C2(C(=O)OC)OCC1(C3O)C1(O)C3CC(C4(O)C=COC4O3)C1(C)O2 (stereo not given)	> 200	174	–
CCCCn1c(C)c2c(c1C)C(=O)N(CCN1CCN(c3ccccc3Cl)CC1)C2=O	> 200	> 200	–
COc1ccc(C2=Nc3cc(C)c(C)cc3NC(c3ccccc3)C2)cc1 (stereo not given)	> 200	28.8	–
Cc1cn(C2CC(N)C(C(=O)NCC(=O)O)O2)c(=O)[nH]c1=O (stereo not given)	> 200	> 200	–
NCCCCCNOCCCN	> 200	132	–
COc1ccc2c(c1)OC[C@@H]1c3cc(OC)c(OCc4ccccc4)cc3O[C@H]21	6.61	> 100	–
O=c1[nH][nH]c(=O)c2nc(Nc3ccccc3)ncc12	> 28.2	> 28.2	–
Cc1cn(C2CC(/[N+]([O-])=N/Nc3ccc([N+](=O)[O-])cc3)C(CO[Si](C)(C)C(C)(C)C)O2)c(=O)[nH]c1=O (stereo not given)	> 200	7.41	–
CC(C)(C)NC(=O)N1N=C(c2ccccc2)C1c1ccccc1 (stereo not given)	> 200	26.9	–
NC(=O)Nc1ccc(S(=O)(=O)c2ccc(N)cc2)cc1	> 200	> 200	–
CCC(=O)OC1CCC2C3CCC(=O)OC3C(C)(CCC(=O)O)CC12C (stereo not given)	> 200	1.91	–
CC(C)OC(=O)c1ccc(CCC2=CC(=O)C=CC2=O)cc1	> 200	8.32	–
COCC(C#N)NC1CC(OC2CC(O)(C(=O)CO)Cc3c(O)c4c(c(O)c32)C(=O)c2c(OC)cccc2C4=O)OC(C)C1O (stereo not given)	> 0.2	0.00912	–
[Co].[NH-]CC[NH-].[NH-]CC[NH-].[NH-]CC[NH-]	> 200	> 200	–
CC(=O)/C(N=Nc1ccc(-n2c(C)nc3ccc(Br)cc3c2=O)cc1)=C(/C)O	> 200	148	–
CC(=O)c1c2c(cc3c1CC1(Cc4ccccc4C1=O)C3)CCC2 (stereo not given)	> 200	17.8	–
CCCCCCCCCCCCCCCCCC(=O)OC(COC(=O)COCCOCCOCCOCCOCCOC)COP(=O)([O-])OCC[N+](C)(C)C (stereo not given)	–	–	inactive
CC1(c2nc3ccccc3[nH]2)CCC(C#N)C(C)(C)O1 (stereo not given)	> 200	> 200	–

Compound	EC50 [µM]	IC50 [µM]	outcome
CC(C)C1CCC2(C)CC3C(CO)CC(O)C3C(C)(O)C/C=C/12 (stereo not given)	–	–	inactive
CCCCc1ccc(N=C(N)N)cc1	> 200	28.8	–
CC1(C)C2C3CCC2C2C[S+]1CC23	> 162	107	–
NNc1nnc(-c2nnc(NN)o2)o1	> 200	> 200	–
O=C1c2cccc3cccc(c23)C(=O)N1CCNCCN1C(=O)c2cccc3cccc(c23)C1=O	> 29.5	10.5	–
CS(=O)(=O)N(CCC#N)c1ccc(/C=C2\N=C(c3ccccc3Cl)OC2=O)cc1	> 219	> 219	–
Cc1cccc(C)c1NC(=O)CCC(=O)CC(=O)C(C)C	> 123	> 123	–
C[C@]12CCc3nn(-c4ccccc4)nc3C1CC[C@@H]1C2CC[C@]2(C)NC(=O)CCC12 (stereo not given in full)	> 23.4	> 23.4	–
CCC1(O)C(=O)OCc2c1cc1n(c2=O)Cc2cc3ccc(CO)cc3nc2-1 (stereo not given)	> 10	1.51	–
N#CC(C#N)=C(C#N)C#N	> 200	> 200	–
CC(C)CCCC(C)[C@H]1CCC2C3CC=C4C[C@@H](OP(=O)(O)OCCC=C(c5cc(Cl)c(O)c(C(=O)O)c5)c5cc(Cl)c(O)c(C(=O)O)c5)CC[C@]4(C)C3CC[C@@]21C (stereo not given in full)	> 100	38.9	–
CC1=C(/C=C/C(C)=C/C=C/C(C)=C/C(=O)O)C(C)(C)CCC1	–	–	inactive
OC(CC(CC(O)(C(F)(F)Cl)C(F)(F)Cl)=NNc1ccccc1)(C(F)(F)Cl)C(F)(F)Cl	> 200	2.14	–
O=C(CC(=O)N(C(=O)c1ccccc1)c1ccc(Cl)cc1)N/N=C\c1ccccc1O	> 200	> 200	–
CC(C)(C)c1cc(CCC(=O)Nc2ccc(Cl)cc2)[nH]c(=S)n1	> 513	> 513	–
O=C1C=CC(=O)c2c1c1c(c3c2C2c4ccccc4C3c3ccccc32)C2c3ccccc3C1c1ccccc12	> 10.2	> 10.2	–
CCOC(=S)SSSC(=S)OCC	> 110	34.7	–
c1ccc([P+](Cc2ccc(C[P+](c3ccccc3)(c3ccccc3)c3ccccc3)s2)(c2ccccc2)c2ccccc2)cc1	16.2	34.7	–
NC(=O)CNC(=O)c1ccccc1SC(=O)NCCBr	2	10	–
CCN1C[C@]2(COC(=O)c3ccccc3N3C(=O)CC(C)C3=O)CCC(OC)C34[C@@H]5C[C@@H]6C(OC)[C@@H]5[C@](O)(C[C@@H]6OC)[C@@](O)([C@H]13)[C@@H](OC)[C@@H]42 (stereo not given in full)	–	–	inactive

Compound	EC50 [µM]	IC50 [µM]	outcome
CC(=O)c1ccc(N=Nc2ccc3nonc3c2N)cc1	> 200	> 200	–
O=c1ccn(C/C=N/OCCP(=O)(O)O)c(=O)[nH]1	> 200	> 200	–
CCCCn1c(C)c(C(=O)OCC)c2cc(OCc3ccc(C(=O)Nn4c(C)ccc4C)cc3)c(Br)cc21	> 95.5	> 95.5	–
CC1(C)O[C@@H]([C@H](O)CO)[C@H](O)[C@@H](C2SCCCS2)O1	> 200	> 200	–
COC(=O)C1Cc2c([nH]c3ccccc23)-c2[nH]c3ccccc3c2CC(NC(C)=O)C(=O)N2CCCC2C(=O)N1 (stereo not given)	> 200	36.3	–
O=C(CNN1C(=O)CSC1=Nc1cccc2ccccc12)c1cccc2c1Nc1ccccc1S2	–	–	inactive
CO/N=C1\CC(NC(=O)C(F)(F)F)c2ccsc21 (stereo not given)	> 200	> 200	–
CCCCCCCCCCCCCCCCCCOC(COP(=O)(O)OCC1CCC(n2cnc3c(=O)[nH]cnc32)O1)COP(=O)(O)OCC1OC(n2cc(C)c(=O)[nH]c2=O)CC1N=[N+]=[N-] (stereo not given)	1.17	162	–
COC(=O)C1Cc2c(n(C)c3ccccc23)C(CCC(=O)O)N1Cc1ccccc1 (stereo not given)	–	–	inactive
CCn1c(C)nc2c(N)cccc2c1=O	> 1230	> 1230	–
C=CCNC(=S)Nc1ccccn1	> 200	> 200	–
COC(=O)c1ccccc1/C=C1\Cc2c(C)cc(C)cc2C1=O	–	–	inactive
COc1ccc2nc3ccccc3c(NCCCN(C)C)c2c1[N+](=O)[O-]	> 200	0.589	–
CN(C)CCCNC(=O)c1cc(NC(=O)c2cc(NC(=O)c3cc(NC(=O)c4ncccc4C(=O)O)cn3C)cn2C)cn1C	> 200	> 200	–
COC(=O)CC1C(C)(C)C(=O)C2CC3=C4CC(=O)OC(c5ccoc5)C4(C)CCC3C1(C)C2=O (stereo not given)	> 55	> 55	–
CCC(=O)c1ccc2c(c1)N(CCCN1CCN(CCO)CC1)c1ccccc1S2	> 200	9.33	–
COc1ccc(C2SCC(=O)N2NC(=O)c2ccc(NC(C)=O)cc2)c(OC)c1 (stereo not given)	> 63.1	> 63.1	–
C=CC1(C)CC(=O)C2(O)C(C)(O1)C(OC(C)=O)C(O)C1C(C)(C)CCC(O)C12C (stereo not given)	–	–	inactive
N#C/C(=C\c1c(Cl)cccc1Cl)c1nc2ccccc2[nH]1	> 200	24.5	–
